The record followed here is patent US20160109459A1, “Compositions And Methods For Heparan Sulfate As A Biomarker For Transplant Rejection” (Duke University, priority 2012, published 2016).

In one test the test system is BALB/c DCs. The test can be described thus: DC production of pro-inflammatory cytokines by ELISA. In kind it is cell-based, mouse. Here is the method: FIG. 3A is a graph showing WT, TLR4^−/−, or MyD88^−/− BALB/c DCs (2×10^5/well) were stimulated with LPS (100 ng/mL), HS (100 μg/mL), or Pam3CSK4 (2 μg/mL), or left unstimulated (media) for 24 hours, and measured for surface expression of co-stimulatory molecules CD40 and CD80 by FACS analysis. FIGS. 3B and 3C are graphs showing WT, MyD88^−/−, and TLR4^−/− BALB/c cultured DCs were co-cultured with media alone, LPS, HS, or Pam3CSK4 as in (A) and culture supernatants were tested for IL-6 (B) and IL-12 (C) by ELISA. Data are representative of three independent experiments; *p<0.05 compared with media alone.
Lethally irradiated BALB/c recipients received either 1×10^7 B10.D2 TCD-BM only (Allo-BM), 1×10^7 B10.D2 TCD-BM and 5×10^6 B10.D2 LCs (Allo-BM+LC), or 1×10^7 BALB/c TCD-BM and 5×10^6 BALB/c LCs (Syn-BM+LC). FIG. 6A is a graph showing HS concentrations following transplantation as determined by ELISA at the indicated time points; n=2-5 samples per time point; *p<0.05 comparing Allo-BM+LC and Allo-BM at the indicated time point. FIG. 6B is a graph showing the half maximal effective concentration (EC50) of HS on DC stimulation, BALB/c DCs (2×10^5/well) following 24 hr of culture with differing concentrations of HS in triplicate and IL-6 production was tested by ELISA. Results are representative of three independent experiments.
FIG. 13 is a graph showing WT, MyD88^−/−, and TLR4^−/− BALB/c cultured DCs that were co-cultured with media alone, LPS, HS, or Pam3CSK4 and tested for TNF-α as determined by ELISA assay.
Cytokine analysis: Cell culture supernatants were obtained from DC cultures or T cell proliferation assays and assayed for IL-6, IL-12 and IFN-γ by ELISA (BD Biosciences) according to the manufacturer's standard protocols. HEK 293 supernatants were tested for human IL-8 by ELISA (BioLegend, San Diego, United States).
To determine if the in vivo concentrations of HS were sufficient to cause DC activation, the production of IL-6 by cultured DCs in response to a range of HS concentrations was tested (FIG. 6B).

In a further test the target is T1, human TLR4 (Homo sapiens, UniProt O00206).
T1 construct: expressed in transfected cells; host or cells: HEK 293 (gift from Dr. Michael Fessler, NIEHS)
The test is described as follows: NF-κB dual luciferase reporter assay in HEK TLR4-MD2-CD14 cells. Format: cell-based. The settings on record: HS 100 μg/mL, 6 hours, TLR4 expressing cell lines. The procedure:
HEK cell lines stably expressing CD14 and MD2 alone (HEK MD2-CD14), or co-expressed with human TLR2 (HEK TLR2-MD2-CD14) or human TLR4 (HEK TLR4-MD2-CD14) were transfected with a plasmid encoding firefly luciferase (F) under control of the NF-κB promoter along with a plasmid expressing Renilla luciferase (R) under control of the thymidine kinase promoter as a transfection control. Cell lines were cultured for 6 hours with media alone, LPS (100 ng/mL), HS (100 μg/mL), or Pam3CSK4 (2 μg/mL). FIG. 5A is a graph showing the ratio of F/R was measured by dual luciferase reporter assay to determine NF-κB activation of lysed cells, *p<0.05 compared with media alone. FIG. 5B is a graph showing results supernatants analyzed for IL-8 production by ELISA. […]
Luciferase reporter assay: Luciferase activity was measured using the Dual-Luciferase Reporter Assay (Promega, Madison, Wis., USA) according to the manufacture's recommended protocol. Luminescence was measured using an LMax Luminometer (Molecular Devices, Sunnyvale, United States).
A heterodimer of different TLRs is required for some PAMPs. […] The ratio of luminescence produced by firefly luciferase to Renilla luciferase (F/R) was then measured in response to media alone, LPS, HS, and Pam3CSK4. The production of IL-8, which is downstream of NF-κB activation, by ELISA was also measured. […]

Where [1] appears, read: BALB/c DCs 2×10^5/well, 24 hr culture.

T1 sequence (O00206 24-839): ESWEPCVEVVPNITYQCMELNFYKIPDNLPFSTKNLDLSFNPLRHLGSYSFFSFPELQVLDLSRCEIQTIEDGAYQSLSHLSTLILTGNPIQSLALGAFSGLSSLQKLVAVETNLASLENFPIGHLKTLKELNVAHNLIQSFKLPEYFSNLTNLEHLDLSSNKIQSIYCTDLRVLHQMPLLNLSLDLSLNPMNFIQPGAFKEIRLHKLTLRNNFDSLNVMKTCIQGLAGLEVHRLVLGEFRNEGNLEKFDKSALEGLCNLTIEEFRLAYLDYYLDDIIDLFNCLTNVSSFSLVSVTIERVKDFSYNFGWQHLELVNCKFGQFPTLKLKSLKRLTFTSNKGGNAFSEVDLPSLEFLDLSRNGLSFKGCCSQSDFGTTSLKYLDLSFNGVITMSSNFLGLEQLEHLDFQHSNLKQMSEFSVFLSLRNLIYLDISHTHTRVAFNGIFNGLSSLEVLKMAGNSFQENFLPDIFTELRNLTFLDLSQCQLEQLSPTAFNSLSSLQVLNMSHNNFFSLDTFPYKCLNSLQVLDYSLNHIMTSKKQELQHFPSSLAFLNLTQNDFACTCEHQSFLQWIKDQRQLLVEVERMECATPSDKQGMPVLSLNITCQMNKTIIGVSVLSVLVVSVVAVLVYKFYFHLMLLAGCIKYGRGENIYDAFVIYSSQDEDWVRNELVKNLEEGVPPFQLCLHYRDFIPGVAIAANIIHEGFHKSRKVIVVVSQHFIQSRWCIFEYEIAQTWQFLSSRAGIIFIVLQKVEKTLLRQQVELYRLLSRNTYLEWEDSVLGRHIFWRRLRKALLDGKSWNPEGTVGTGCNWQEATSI
T1 sequence (Q9Y6Y9 17-160 partner limits assumed): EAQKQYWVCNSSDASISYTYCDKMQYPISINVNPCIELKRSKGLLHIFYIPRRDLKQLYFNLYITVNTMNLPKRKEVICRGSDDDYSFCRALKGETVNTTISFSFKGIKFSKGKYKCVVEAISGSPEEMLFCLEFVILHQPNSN

heparan sulfate [HS]: in the test with BALB/c DCs (setting [1]), the “concentration achieving maximal response (IL-6 production by DCs)” value was found to be 12.5 µg/mL and the “half maximal effective concentration (EC50) on DC stimulation (IL-6 production)” value is given as “approximately 4 μg/mL”. Further, the “production of IL-6 and IL-12 from TLR4−/− or MyD88−/− DCs” value in the test with BALB/c DCs (HS 100 μg/mL, 24 h) is “but not from TLR4^−/− or MyD88^−/− DCs”. For the same substance, the “production of IL-6 and IL-12 from WT DCs” value in the test with BALB/c DCs (HS 100 μg/mL, 24 h, not inhibited by PMB) is given as “stimulated DCs to produce”. Moreover, the “DC expression of TNF-α” value with BALB/c DCs (TLR4- and MyD88-dependent) is “up-regulate”. Also, the “NF-κB activation (ratio F/R)” value at human TLR4 is recorded as “caused NF-κB activation”.
